Test results published in ChEMBL document CHEMBL5576045, “M1/M4 receptors as potential therapeutic treatments for schizophrenia: A comprehensive study” (Bioorg Med Chem, 2024).

Biological target: T1, Muscarinic acetylcholine receptor M4 (Homo sapiens) (UniProt P08173)
T1 sequence (whole entry): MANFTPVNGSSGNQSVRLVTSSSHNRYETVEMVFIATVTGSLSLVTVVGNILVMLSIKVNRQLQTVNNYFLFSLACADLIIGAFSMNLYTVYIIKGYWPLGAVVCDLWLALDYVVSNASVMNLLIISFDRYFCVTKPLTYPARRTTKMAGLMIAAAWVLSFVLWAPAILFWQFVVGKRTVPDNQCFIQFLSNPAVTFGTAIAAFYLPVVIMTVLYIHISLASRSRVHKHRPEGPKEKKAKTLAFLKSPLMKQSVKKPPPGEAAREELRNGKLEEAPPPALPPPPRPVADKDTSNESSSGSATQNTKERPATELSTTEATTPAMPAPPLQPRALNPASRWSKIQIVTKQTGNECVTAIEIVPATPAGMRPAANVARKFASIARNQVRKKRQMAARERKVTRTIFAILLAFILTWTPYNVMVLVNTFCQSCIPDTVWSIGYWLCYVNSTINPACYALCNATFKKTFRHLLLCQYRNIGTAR
Assay: Binding affinity to M4 receptor (unknown origin) assessed as fold change in presence of acetylcholine

fold change (FC): 3
Structure (SMILES): CC1=C(CCO)SC2=Nc3nc(C)ncc3CN21
